Laboratory results as given in PMC8920379, “The discovery of berberine erythrocyte-hemoglobin self-assembly delivery system: a neglected carrier underlying its pharmacokinetics” (Drug Delivery, 2022).
Where “and” joins values, the source holds several entries; their conditions need not be identical. Equal entries are not always repeated. Entries after “also recorded” stand apart in the source; their conditions may differ.

Key:
[1] = target: T1, bovine hemoglobin (BHB) (Bos taurus, UniProt P01966+P02070); experiment: Fluorescence quenching of BHB by BBR (Stern-Volmer) and thermodynamic parameters; format: binding; conditions: for Ksv (Stern-Volmer quenching constant) / kq (quenching rate constant): BHB 2 × 10^−6 mol/L, pH 7.4; for ΔG° / ΔH° / ΔS°: BBR–BHB system
T1 construct: purchased Sigma Aldrich
Experimental: Firstly, 1.0 mL of BHB (2.0 × 10^−6 mol/L) was mixed with 1.0 mL of 0.05 mol/L Tris-HCl buffer (pH = 7.4). And then BHB was added with different amounts of 0.25 × 10^−3 mol/L stock solution of BBR with an increment of 0.25 × 10^−5 mol/L until 1.75 × 10^−5 mol/L. […] (excitation at 280 nm and emission wavelengths ranging from 295 to 400 nm). The synchronous fluorescence spectra were measured through simultaneous scanning of the excitation (λex = 240 nm) and emission monochromators while maintaining a constant wavelength interval between them (Δλ, 15 nm and 60 nm).
In addition, CD spectra were collected from 200 to 260 nm with three scans averaged for each CD spectrum. The molar ratio (1:1) of BHB: BBR was used for the measurement. Briefly, BHB and BBR were dissolved in Tris-HCl (pH 7.4), and the solutions were freeze-dried into powder. Raman spectra were measured from 2600 to 400 cm^−1 using the Nd-YAG laser (1064 nm). Due to the existence of inner filter effects, the fluorescence parameter was corrected using the equation: F=F0×10^(AEX+AEM/2) where F and F0 are the fluorescence intensity corrected and observed, respectively; AEX and AEM are the sums of the absorbance of samples at excitation and emission wavelengths (Chen et al., [2021]).
Fluorescence quenching could be used to explore the interaction between drugs and proteins, and further elucidate the interaction between small drug molecules and biological macromolecules at the molecular level. Due to the quenching mechanisms were usually classified as static and dynamic quenching, the Stern-Volmer equation was utilized to calculate the fluorescence quenching data (Wang et al., [2007]): F0/F=1+Ksv[Q]=1+kqτ0[Q] where F0 and F are the fluorescence intensities at the absence or presence of BBR after correction by Equation, respectively. Ksv is the Stern-Volmer quenching constant, while [Q] is the concentration of the quencher. In addition, kq is the quenching rate constant of the binding system, and τ0 is the lifetime of fluorescence at the absence of quencher ([…]) (Sousa et al., [2008]).
In our earlier research, we have explored the association constants and the number of binding sites, and we have learned that in a static quenching system when a small molecule combines with a set of sites on a macromolecule, some constant can be calculated from the following equation: lg(F0−F/F)=lgKa+nlg[Q] where F0 and F are the fluorescence intensities in the absence and presence of BBR after correction by Equation in Spectrum procedure, Ka and n mean the association constants and the number of the sites per BHB molecule. The interrelated results were shown in our previous work (Chen et al., [2021]).
The thermodynamic parameters were analyzed using the following equations: ln((Ka)2/(Ka)1)=(1/T1−1/T2)(ΔH°/R) ΔG°=ΔH°−TΔS°=−RTlnKa where (Ka)1, and (Ka)2 are the binding constants at T1 and T2 and, R is the universal gas constant. If ΔH° < 0 and ΔS° < 0, van der Waals’ interactions and hydrogen bonds are dominant the binding reaction. If ΔH° > 0 and ΔS° > 0, hydrophobic interactions play a major role in the binding reaction. When ΔH° < 0 and ΔS° > 0, the electrostatic forces are more important than other forces (Ross and Subramanian, [1981]). […] The large positive entropy is the marker of the disruption and release of protein-bound condensed ions and water molecules (Basu & Suresh Kumar, [2015]).

[2] = cited from earlier work
[3] = system: erythrocyte count, WBC count, PLT and Hb; experiment: Haematological indicators (peripheral blood cells) after intravenous BBR; format: in vivo, SD rats; conditions: rats, i.v. 2.5 mg/kg, 5, 30 and 120 min, vs control group, n = 8
Experimental: After 48 SD rats were fed adaptively for a week, they were randomly divided into the control group and i.v. group (24 rats per group). Then they were further divided into 5, 30, and 120 min subgroups (n = 8). The SD rats in the i.v. group were intravenously administrated with 2.5 mg/kg BBR, while the control group was intravenously administrated with 1 mL 0.9% physiological saline solution. The blood samples were collected from the retroorbital sinus to K2EDTA-coated tubes, and used for the evaluation of haematological indicators including erythrocyte count, white blood cell (WBC) count, platelet count (PLT) and Hb.

[4] = Erythrocytes/plasma partition coefficient of BBR in vivo; design: species or system SD rats; conditions: for Ce (drug concentration in erythrocytes) / Ce/p (erythrocytes/plasma partition coefficient) / Cp (drug concentration in plasma): individual rats no. 1-6
Experimental: After six SD rats were intravenously administrated with BBR, blood samples were obtained from posterior orbital venous plexus to a heparinized tube at 5, 30, and 120 min, respectively, and then centrifuged at 2500 rpm for 10 min. After centrifugation, the upper layer (plasma) was collected, while the lower layer (blood cells) was washed three times with physiological saline and centrifuged for 5 min at 3000 rpm, and then resuspended in an appropriate volume of physiological saline, which was obtained as erythrocytes to perform the following procedure:
Piperine was added into the obtained plasma as the internal standard substance and then the samples were mixed with acetonitrile to precipitate protein. The mixtures were centrifuged at 8000 rpm for 10 min. The supernatants were collected and dried. The eluates were concentrated and re-dissolved for analysis.
The obtained erythrocytes were mixed with piperine and HC, and placed in a water bath at 60 °C for 6 h and then centrifuged at 12,000 rpm for 10 min. The supernatant was obtained and injected through a solid-phase extraction to separate drugs and impurities. The filtrate was collected, dried, and then re-dissolved with 200 μL acetonitrile for HPLC analysis (Chen et al., [2021]).

[5] = design: method as in Liu et al., 2010; Chen et al., 2011; conditions: ref Liu et al., 2010; Chen et al., 2011; cited from earlier work

T1 sequence (P01966 2-142 limits assumed): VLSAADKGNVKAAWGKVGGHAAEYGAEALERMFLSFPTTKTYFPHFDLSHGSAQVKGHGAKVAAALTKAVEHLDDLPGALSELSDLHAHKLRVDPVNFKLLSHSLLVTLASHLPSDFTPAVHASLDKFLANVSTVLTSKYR
T1 sequence (P02070 whole entry): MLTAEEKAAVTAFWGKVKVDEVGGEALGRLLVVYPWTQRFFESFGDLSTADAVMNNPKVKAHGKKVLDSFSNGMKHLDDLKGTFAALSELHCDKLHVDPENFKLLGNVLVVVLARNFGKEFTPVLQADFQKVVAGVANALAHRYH

COc1ccc2cc3[n+](cc2c1OC)CCc1cc2c(cc1-3)OCO2 [BBR, Berberine]
Ksv (Stern-Volmer quenching constant) ([1]; 293 K): 41272 L/mol | kq (quenching rate constant) ([1]; 293 K): 4.1272e+12 M⁻¹ s⁻¹ | Ksv (Stern-Volmer quenching constant) ([1]; 298 K): 38445 L/mol | kq (quenching rate constant) ([1]; 298 K): 3.8445e+12 M⁻¹ s⁻¹ | Ksv (Stern-Volmer quenching constant) ([1]; 310 K): 30957 L/mol | kq (quenching rate constant) ([1]; 310 K): 3.0957e+12 M⁻¹ s⁻¹ | ΔG° ([1]; 293 K): -6.1902 kcal/mol | ΔH° ([1]; 293 K): -1.1352 kcal/mol | ΔS° ([1]; 293 K): 72.113 J mol^−1K^−1 | ΔG° ([1]; 298 K): -6.2765 kcal/mol | ΔH° ([1]; 298 K): -1.1352 kcal/mol | ΔS° ([1]; 298 K): 72.114 J mol^−1K^−1 | ΔG° ([1]; 310 K): -6.4493 kcal/mol | ΔH° ([1]; 310 K): -1.1352 kcal/mol | ΔS° ([1]; 310 K): 71.724 J mol^−1K^−1 | quenching mechanism of BBR-BHB complex formation ([1]; Ksv and Kq decreased with increasing temperature): static quenching process | major force in the binding reaction ([1]; from negative ΔH° and positive ΔS°): electrostatic interaction | concentration of BBR in the liver relative to plasma ([2]; background statement of the introduction, no reference given): about 10 fold | average concentration of BBR in liver relative to plasma ([2]; ref Yan et al., 2009, Tan et al., 2013, Yu et al., 2017): 10–30 times | Hb content [3]: significantly decreased; also recorded: significantly reduced | erythrocytes count [3]: significantly decreased; also recorded: significantly reduced | platelet count [3]: did not fluctuate obviously; also recorded: no significant effects | white blood count [3]: did not fluctuate obviously; also recorded: no significant effects | Ce (drug concentration in erythrocytes) ([4]; 5 min after 2.5 mg/kg): 1.313 µM and 0.039 µM and 0.000 µM and 0.375 µM and 0.862 µM and 0.584 µM | Ce/p (erythrocytes/plasma partition coefficient) ([4]; 5 min after 2.5 mg/kg): ∞ and 0.081 and 1.610 and 3.700 and 1.405 | Cp (drug concentration in plasma) ([4]; 5 min after 2.5 mg/kg): 0 nM and 489 nM and 233 nM and 416 nM | Ce (drug concentration in erythrocytes) ([4]; 30 min after 2.5 mg/kg): 0.044 µM and 0.212 µM and 0.026 µM and 0.176 µM and 0.539 µM | Ce/p (erythrocytes/plasma partition coefficient) ([4]; 30 min after 2.5 mg/kg): ∞ and 0.090 and 0.897 and 0.875 | Cp (drug concentration in plasma) ([4]; 30 min after 2.5 mg/kg): 0 nM and 282 nM and 197 nM and 616 nM | Ce (drug concentration in erythrocytes) ([4]; 120 min after 2.5 mg/kg): 0.225 µM and 0.000 µM and 0.132 µM | Ce/p (erythrocytes/plasma partition coefficient) ([4]; 120 min after 2.5 mg/kg): ∞ | Cp (drug concentration in plasma) ([4]; 120 min after 2.5 mg/kg): 0 nM and 1243 nM | Kp at 5 min ([4]; SD, rat, erythrocytes/plasma, iv, 2.5 mg/kg, 5 min after intravenous administration, rats, read-out: Ce/p value (group value)): 1.67 ± 1.5 | Kp at 30 min ([4]; SD, rat, erythrocytes/plasma, iv, 2.5 mg/kg, 30 min after intravenous administration, rats, read-out: Ce/p value (group value)): 0.62 ± 0.6 | oral bioavailability [5]: less than 1%
